Source: US6960590B2, “Orally active salts with tyrosine kinase activity” (Merck & Co. Inc., priority 2000, dated 2005)
Counter-ions that a name gives are not always drawn. Blank lines part the entries; values can stand above or below the compound they belong to.

Legend:
Format in all cases: physicochemical
[1] = Measurement of salt solubility: salts of 1-11 formed in situ and suspended in water, HPLC (UV-Vis); conditions: for Solubility: free base plus 1.05-1.1 molar equivalence of acid, suspended in water for several days, method overestimates the solubility; for pH: pH in equilibrium with the solid phase of the salt suspended in water, most likely lower than pH of the salt in water
Description: The solid free base was treated with a concentrated solution of the appropriate acid (1.05-1.1 molar equivalence) and suspended in water for several days. The pH and concentration of the compound in equilibrium with the solid phase was measured by HPLC (UV-Vis detection). This method overestimates the solubility of the salt due to the 5-10% excess of the acid that is added in the preparation of the salts. For the same reason, the pH's that are obtained are most likely lower than the pH of the salt in water.

[2] = Solubility of salts of 4-9 prepared in situ (pH and concentration by HPLC); conditions: for pH: pH of the liquid residue of the aqueous suspension; for Solubility: free base plus 1.05 mole equivalents of acid, suspended in 100 μL of water, rotated overnight, centrifuged
Source text: Two forms of the mesylate salt were made: Salt 4-9A above and Salt 4-9B below.

[3] = Solubility of isolated crystalline salts of 1-11 in water and organic solvents; conditions: for solubility at 7 days: thermodynamic from solid, RT for 7 days
Description: The amorphous mesylate salt was recrystallized from 50:50 Ethanol:THF to give a crystalline powder (Salt 1-11A). The X-ray powder diffraction pattern (XRPD) of the recrystallized mesylate salt 1-11A (FIG. 2) is indicative of crystalline material with multiple diffraction peaks between 5° and 30° 2-theta.
A second batch of crystalline mesylate salt (Salt 1-11B) was obtained by the following procdeure. To a stirred suspension of 1-11 (4.026 g, 9.22 mmol) in MeOH was slowly added at room temperature (RT) one equivalent of a 0.3M solution of methanesulfonic acid (30.73 mL). After all the solid had dissolved, the mixture was filtered into a flask and concentrated under reduced pressure while cooled to about 10° C. The resulting solid was suspended with 200 mL of ethylacetate, filtered, and dried to afford the mesylate salt. […] This crystalline form is different by XRPD than the one recrystallized from the amorphous salt in EtOH/THF (Salt 1-11A).
HCl salt 1-11D is also crystalline as witnessed by the X-ray powder diffraction pattern of the material, having multiple diffraction peaks between 5° and 30° 2-theta. […] (rate of 10° C./min). The compound is birefringent under plane polarized light. It is needle-shaped particles of approximately 5-25 micron. The solubility of salt 1-11D was measured in water and various organic solvents. Table VI below summarizes the solubility of the 1-11D suspended in various solvents for 7 days at room temperature.

[4] = Solubility of free base 1-11 at room temperature in 0.05M aqueous buffers, water and organic solvents (HPLC)
Description: The solubility of 1-11 at room temperature was determined in 0.05M aqueous buffers, water and several organic solvents.

- Solubility [1]: 160 µg/mL
- pH [1]: 2.5
Structure (SMILES): CS(=O)(=O)N1CCN(Cc2ccc3[nH]c(-c4cc5ccccc5[nH]c4=O)cc3c2)CC1 [Maleate salt of 1-11, 3-[5-(4-Methanesulfonyl-piperazin-1-ylmethyl)-1H-indol-2-yl]-1H-quinolin-2-one]

- Solubility [1]: 91 µg/mL
- pH [1]: 3.3
Structure (SMILES): CS(=O)(=O)N1CCN(Cc2ccc3[nH]c(-c4cc5ccccc5[nH]c4=O)cc3c2)CC1 [Acetate salt of 1-11, 3-[5-(4-Methanesulfonyl-piperazin-1-ylmethyl)-1H-indol-2-yl]-1H-quinolin-2-one]

Structure (SMILES): COCCN(C)CCOc1ccc2[nH]c(-c3cc4ccccc4[nH]c3=O)cc2c1 [Tartrate salt of 4-9, 3-(5-{2-[(2-methoxyethyl)(methyl)amino]ethoxy}-1H-indol-2-yl)-2(1H)-quinolinone]
- pH [2]: 3.23

- Solubility [1]: 110 µg/mL
Structure (SMILES): CS(=O)(=O)N1CCN(Cc2ccc3[nH]c(-c4cc5ccccc5[nH]c4=O)cc3c2)CC1 [Citrate salt of 1-11, 3-[5-(4-Methanesulfonyl-piperazin-1-ylmethyl)-1H-indol-2-yl]-1H-quinolin-2-one]

- Solubility [1]: 3.8 µg/mL
- pH [1]: 2.4
Structure (SMILES): CS(=O)(=O)N1CCN(Cc2ccc3[nH]c(-c4cc5ccccc5[nH]c4=O)cc3c2)CC1 [Besylate salt of 1-11, 3-[5-(4-Methanesulfonyl-piperazin-1-ylmethyl)-1H-indol-2-yl]-1H-quinolin-2-one]

Structure (SMILES): COCCN(C)CCOc1ccc2[nH]c(-c3cc4ccccc4[nH]c3=O)cc2c1 [Mesylate 4-9B, 3-(5-{2-[(2-methoxyethyl)(methyl)amino]ethoxy}-1H-indol-2-yl)-2(1H)-quinolinone]
- Solubility [2]: 22000 µg/mL

- Solubility [1]: 200 µg/mL
- pH [1]: 2.9
Structure (SMILES): CS(=O)(=O)N1CCN(Cc2ccc3[nH]c(-c4cc5ccccc5[nH]c4=O)cc3c2)CC1 [HBr salt of 1-11, 3-[5-(4-Methanesulfonyl-piperazin-1-ylmethyl)-1H-indol-2-yl]-1H-quinolin-2-one]

Structure (SMILES): COCCN(C)CCOc1ccc2[nH]c(-c3cc4ccccc4[nH]c3=O)cc2c1 [Sulfate salt of 4-9, 3-(5-{2-[(2-methoxyethyl)(methyl)amino]ethoxy}-1H-indol-2-yl)-2(1H)-quinolinone]
- pH [2]: 1.40

Structure (SMILES): COCCN(C)CCOc1ccc2[nH]c(-c3cc4ccccc4[nH]c3=O)cc2c1 [Citrate salt of 4-9, 3-(5-{2-[(2-methoxyethyl)(methyl)amino]ethoxy}-1H-indol-2-yl)-2(1H)-quinolinone]
- Solubility [2]: 19800 µg/mL
- pH [2]: 3.33

- Solubility [1]: 130 µg/mL
- pH [1]: 1.5
Structure (SMILES): CS(=O)(=O)N1CCN(Cc2ccc3[nH]c(-c4cc5ccccc5[nH]c4=O)cc3c2)CC1 [Sulfate salt of 1-11, 3-[5-(4-Methanesulfonyl-piperazin-1-ylmethyl)-1H-indol-2-yl]-1H-quinolin-2-one]

- Solubility [1]: 430 µg/mL
- pH [1]: 2.3
Structure (SMILES): CS(=O)(=O)N1CCN(Cc2ccc3[nH]c(-c4cc5ccccc5[nH]c4=O)cc3c2)CC1 [HCl salt of 1-11, 3-[5-(4-Methanesulfonyl-piperazin-1-ylmethyl)-1H-indol-2-yl]-1H-quinolin-2-one]

- solubility at 7 days ([3]; aqueous ETOH, aqueous with cosolvent or surfactant or cyclodextrin): 4340 µg/mL
- solubility at 7 days ([3]; aqueous IPA, aqueous with cosolvent or surfactant or cyclodextrin): 3990 µg/mL
- solubility at 7 days ([3]; ethanol, organic solvent or mixture): 130 µg/mL
- solubility at 7 days ([3]; isopropanol, organic solvent or mixture): 57 µg/mL
- solubility at 7 days ([3]; water): 620 µg/mL
Structure (SMILES): CS(=O)(=O)N1CCN(Cc2ccc3[nH]c(-c4cc5ccccc5[nH]c4=O)cc3c2)CC1 [Salt 1-11D, 3-[5-(4-Methanesulfonyl-piperazin-1-ylmethyl)-1H-indol-2-yl]-1H-quinolin-2-one]

- Solubility ([4]; 0.05M Carbonate, pH final 10.09, room temperature): 79 µg/mL
- Solubility ([4]; 0.05M Citrate, pH final 4.15, room temperature): 73 µg/mL
- Solubility ([4]; 0.05M Citrate, pH final 5.07, room temperature): 70 µg/mL
- Solubility ([4]; 0.05M Phosphate, pH final 7.93, room temperature): 74 µg/mL
- Solubility ([4]; 0.05M Phosphate, pH final 8.86, room temperature): 73 µg/mL
Structure (SMILES): CS(=O)(=O)N1CCN(Cc2ccc3[nH]c(-c4cc5ccccc5[nH]c4=O)cc3c2)CC1 [Salt 1-11, 3-[5-(4-Methanesulfonyl-piperazin-1-ylmethyl)-1H-indol-2-yl]-1H-quinolin-2-one]

- Solubility ([3]; acetonitrile, organic solvent or mixture): 30 µg/mL
Structure (SMILES): CS(=O)(=O)N1CCN(Cc2ccc3[nH]c(-c4cc5ccccc5[nH]c4=O)cc3c2)CC1 [Salt 1-11B, 3-[5-(4-Methanesulfonyl-piperazin-1-ylmethyl)-1H-indol-2-yl]-1H-quinolin-2-one]

- Solubility [1]: 580 µg/mL
- pH [1]: 2.3
Structure (SMILES): CS(=O)(=O)N1CCN(Cc2ccc3[nH]c(-c4cc5ccccc5[nH]c4=O)cc3c2)CC1 [Mesylate salt of 1-11, 3-[5-(4-Methanesulfonyl-piperazin-1-ylmethyl)-1H-indol-2-yl]-1H-quinolin-2-one]
